Measurements reported in ChEMBL document CHEMBL4354824, “4-Aryl-1-oxa-4,9-diazaspiro[5.5]undecane Derivatives as Dual μ-Opioid Receptor Agonists and σ1 Receptor Antagonists for the Treatment of Pain” (J Med Chem, 2020).

Assays:
Mu-type opioid receptor [1] = biological target: T1, Mu-type opioid receptor (Homo sapiens, UniProt P35372); assay: Agonist activity at human MOR expressed in CHOK1 cells assessed as […] of cAMP accumulation incubated for 45 mins by HTRF assay relative to DAMGO; format: functional, cell-based
T1 sequence (P35372 whole entry): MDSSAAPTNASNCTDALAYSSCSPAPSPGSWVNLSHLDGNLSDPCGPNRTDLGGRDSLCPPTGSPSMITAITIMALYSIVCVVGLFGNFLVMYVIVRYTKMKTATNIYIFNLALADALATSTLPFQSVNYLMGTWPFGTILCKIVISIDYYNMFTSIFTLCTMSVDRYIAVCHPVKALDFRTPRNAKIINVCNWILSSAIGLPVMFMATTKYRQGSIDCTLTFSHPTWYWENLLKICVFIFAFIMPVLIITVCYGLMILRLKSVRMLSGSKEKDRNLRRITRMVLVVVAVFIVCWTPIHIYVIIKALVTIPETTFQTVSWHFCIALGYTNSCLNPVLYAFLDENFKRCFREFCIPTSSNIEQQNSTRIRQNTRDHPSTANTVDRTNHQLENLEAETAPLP

[2] = biological target: Sigma non-opioid intracellular receptor 1 (Homo sapiens, UniProt Q99720); assay: Displacement of [3H]-(+)-pentazocine from human sigma-1 receptor expressed in HEK293 membranes incubated for 120 mins by liquid scintillation counting method
Chain of Sigma non-opioid intracellular receptor 1 (Q99720 whole entry): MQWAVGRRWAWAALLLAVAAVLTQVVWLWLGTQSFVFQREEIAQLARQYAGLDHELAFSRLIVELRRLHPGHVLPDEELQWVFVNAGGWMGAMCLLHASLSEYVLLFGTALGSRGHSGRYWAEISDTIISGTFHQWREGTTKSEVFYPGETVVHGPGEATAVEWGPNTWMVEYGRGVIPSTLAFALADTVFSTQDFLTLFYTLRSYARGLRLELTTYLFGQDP

[3] = biological target: T2, Alpha-1A adrenergic receptor (Homo sapiens) (UniProt P35348); assay: Displacement of [3H]-prazosin from human alpha1A adrenoreceptor expressed in enriched membranes at 1 uM incubated for 90 mins by liquid scintillation counting method relative to control; format: cell membranes
T2 sequence (whole entry): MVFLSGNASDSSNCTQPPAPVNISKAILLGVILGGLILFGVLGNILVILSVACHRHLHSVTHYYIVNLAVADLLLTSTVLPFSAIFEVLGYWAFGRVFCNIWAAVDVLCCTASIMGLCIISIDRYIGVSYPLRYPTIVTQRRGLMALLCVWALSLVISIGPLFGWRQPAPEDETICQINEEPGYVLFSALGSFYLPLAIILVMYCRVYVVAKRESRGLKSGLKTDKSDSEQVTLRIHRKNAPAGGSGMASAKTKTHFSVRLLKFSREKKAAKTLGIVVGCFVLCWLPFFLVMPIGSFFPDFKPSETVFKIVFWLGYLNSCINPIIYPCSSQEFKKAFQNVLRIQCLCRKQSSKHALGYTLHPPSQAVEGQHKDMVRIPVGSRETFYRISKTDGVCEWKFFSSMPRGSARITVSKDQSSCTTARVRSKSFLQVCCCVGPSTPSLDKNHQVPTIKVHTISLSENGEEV

Mu-type opioid receptor [4] = biological target: T1, Mu-type opioid receptor; assay: Agonist activity at human MOR expressed in CHOK1 cells assessed as […] of cAMP accumulation incubated for 45 mins by HTRF assay; format: functional, cell-based
[5] = biological target: Voltage-gated inwardly rectifying potassium channel KCNH2 (Homo sapiens, UniProt Q12809)
Chain of Voltage-gated inwardly rectifying potassium channel KCNH2 (Q12809 whole entry): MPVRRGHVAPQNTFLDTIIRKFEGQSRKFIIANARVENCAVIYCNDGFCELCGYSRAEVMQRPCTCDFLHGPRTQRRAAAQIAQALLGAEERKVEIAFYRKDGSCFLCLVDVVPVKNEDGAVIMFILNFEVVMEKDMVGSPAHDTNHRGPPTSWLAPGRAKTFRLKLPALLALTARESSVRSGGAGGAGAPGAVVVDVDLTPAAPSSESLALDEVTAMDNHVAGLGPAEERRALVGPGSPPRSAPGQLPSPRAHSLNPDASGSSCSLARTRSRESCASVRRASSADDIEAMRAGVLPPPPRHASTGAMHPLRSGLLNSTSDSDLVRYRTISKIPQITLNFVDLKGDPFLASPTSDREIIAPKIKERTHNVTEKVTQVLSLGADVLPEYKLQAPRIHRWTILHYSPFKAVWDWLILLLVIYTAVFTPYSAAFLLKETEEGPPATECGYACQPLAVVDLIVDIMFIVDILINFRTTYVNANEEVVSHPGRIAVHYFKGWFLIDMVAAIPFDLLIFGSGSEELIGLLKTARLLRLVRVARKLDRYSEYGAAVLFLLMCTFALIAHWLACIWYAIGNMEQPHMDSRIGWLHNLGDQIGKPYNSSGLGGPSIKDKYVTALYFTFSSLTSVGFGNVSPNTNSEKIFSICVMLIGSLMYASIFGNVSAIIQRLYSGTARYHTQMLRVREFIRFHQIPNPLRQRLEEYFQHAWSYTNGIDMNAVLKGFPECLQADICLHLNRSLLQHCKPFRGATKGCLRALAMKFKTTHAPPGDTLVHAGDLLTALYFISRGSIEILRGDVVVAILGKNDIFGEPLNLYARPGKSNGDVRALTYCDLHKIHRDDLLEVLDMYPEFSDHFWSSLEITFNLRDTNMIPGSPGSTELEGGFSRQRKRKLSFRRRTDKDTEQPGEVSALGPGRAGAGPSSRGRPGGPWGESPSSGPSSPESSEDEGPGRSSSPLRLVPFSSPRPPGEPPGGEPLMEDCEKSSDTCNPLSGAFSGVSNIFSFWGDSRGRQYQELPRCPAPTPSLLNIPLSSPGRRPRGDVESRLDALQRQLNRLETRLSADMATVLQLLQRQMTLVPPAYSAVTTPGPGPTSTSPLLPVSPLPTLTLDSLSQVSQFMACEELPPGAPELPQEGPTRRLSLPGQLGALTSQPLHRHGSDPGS
Description: Inhibition of human ERG expressed in CHOK1 cells assessed as reduction in channel current at -80 mV holding potential by whole cell patch clamp assay

Mu-type opioid receptor [6] = biological target: T1, Mu-type opioid receptor; assay: biochemical
Description: Displacement of [3H]-DAMGO from human MOR expressed in CHOK1 cell membranes incubated for 60 mins by liquid scintillation counting method

Row | SMILES | Emax (Mu-type opioid receptor [1]) [%] | Ki [2] [nM] | inhibition [3] [%] | EC50 (Mu-type opioid receptor [4]) [nM] | IC50 [5] [nM] | Ki (Mu-type opioid receptor [6]) [nM]
1 | C[C@H]1OC2(CCN(CCc3ccccc3)CC2)CN(c2ccccc2)C1=O | 95 | 21 | 75 |  |  | 
2 | CC1OC2(CCN(CCc3cccc(C#N)c3)CC2)CN(c2ccccc2)C1=O (stereo unspecified) | 88 | 28 | 80 | 61 | 600 | 49
3 | CC1OC2(CCN(CCc3ccccc3)CC2)CN(c2cnccc2C(F)(F)F)C1=O (stereo unspecified) | 96 | 63 | 58 | 25 | 3300 | 28
4 | CC1OC2(CCN(CCc3ccccc3)CC2)CN(c2ccccc2F)C1=O (stereo unspecified) | 94 | 11 | 68 | 4 | 1200 | 8
5 | CC1OC2(CCN(CCc3ccccc3)CC2)CN(c2ccccc2Cl)C1=O (stereo unspecified) | 96 | 8 | 75 | 1 | 1000 | 3
6 | C[C@H]1OC2(CCN(CCc3ccccc3F)CC2)CN(c2cnccc2C(F)(F)F)C1=O | 100 | 61 | 54 | 26 | 6300 | 11
7 | CC1OC2(CCN(CCc3ccccn3)CC2)CN(c2ccccc2)C1=O (stereo unspecified) | 85 | 53 | 49 | 229 | 2000 | 90
8 | CC1OC2(CCN(CCc3ccc(F)cc3)CC2)CN(c2ccccc2)C1=O (stereo unspecified) | 95 | 11 | 80 | 25 | 100 | 19
9 | CC1OC2(CCN(CCc3ccncc3)CC2)CN(c2ccccc2)C1=O (stereo unspecified) | 81 | 112 | 30 | 1420 |  | 516
10 | CC1(C)OC2(CCN(CCc3ccccc3)CC2)CN(c2ccccc2)C1=O | 98 | 13 | 92 | 4 | 100 | 3
11 | CC1OC2(CCN(CCc3ccccc3)CC2)CN(c2cncc(F)c2)C1=O (stereo unspecified) | 87 | 3 | 85 | 230 | 1100 | 204
12 | COCC1OC2(CCN(CCc3ccccc3)CC2)CN(c2ccccc2)C1=O (stereo unspecified) | 90 | 32 | 63 | 32 | 1900 | 13
13 | CC1OC2(CCN(CCc3ccccc3)CC2)CN(c2cccnc2C(F)(F)F)C1=O (stereo unspecified) | 87 | 48 | 55 | 186 | 3800 | 123
14 | CC1OC2(CCN(CCc3ccccc3)CC2)CN(c2ccccc2)C1=O (racemic) |  | 6 |  |  |  | 
15 | CCC1OC2(CCN(CCc3ccccc3)CC2)CN(c2ccccc2)C1=O (stereo unspecified) | 99 | 6 | 75 | 1 | 400 | 3
16 | O=C1C(COCc2ccccc2)OC2(CCN(CCc3ccccc3)CC2)CN1c1ccccc1 (stereo unspecified) | 96 | 40 | 94 | 107 | 100 | 40
17 | C[C@@H]1OC2(CCN(CCc3ccccc3)CC2)CN(c2ccccc2)C1=O | 83 | 14 | 68 |  |  | 
18 | CC1OC2(CCN(CCc3ccccc3)CC2)CN(c2ncccc2F)C1=O (stereo unspecified) | 90 | 39 | 77 | 199 | 1200 | 93

Row | SMILES | Emax (Mu-type opioid receptor [1]) [%] | Ki [2] [nM] | inhibition [3] [%] | EC50 (Mu-type opioid receptor [4]) [nM] | IC50 [5] [nM] | Ki (Mu-type opioid receptor [6]) [nM]
19 | CC1OC2(CCN(CCc3ccccc3)CC2)CN(c2cccnc2)C1=O (stereo unspecified) | 54 | 68 | 69 | 627 |  | 304
20 | CC1OC2(CCN(CCc3ccccc3F)CC2)CN(c2ccccc2)C1=O (stereo unspecified) | 95 |  | 81 |  |  | 
21 | CC1OC2(CCN(CCc3ccccc3)CC2)CN(c2cnccn2)C1=O (stereo unspecified) | 55 | 13 | 64 | 527 | 100 | 304
22 | CC(C)C1OC2(CCN(CCc3ccccc3)CC2)CN(c2ccccc2)C1=O (stereo unspecified) | 96 | 10 | 65 | 0.2 | 1200 | 1
23 | O=C1C(CO)OC2(CCN(CCc3ccccc3)CC2)CN1c1ccccc1 (stereo unspecified) | 88 | 209 | 55 | 125 | 1100 | 46
24 | CC1OC2(CCN(CCc3ccccc3)CC2)CN(c2cccc(C(F)(F)F)n2)C1=O (stereo unspecified) | 91 | 8 | 95 | 219 |  | 90
25 | CC1OC2(CCN(CCc3cccc(F)c3)CC2)CN(c2ccccc2)C1=O (stereo unspecified) | 94 | 8 | 74 | 13 | 600 | 10
26 | COc1cccc(N2CC3(CCN(CCc4ccccc4)CC3)OC(C)C2=O)c1 (stereo unspecified) | 88 | 15 | 82 | 304 | 1000 | 126
27 | COc1ccccc1N1CC2(CCN(CCc3ccccc3)CC2)OC(C)C1=O (stereo unspecified) | 81 | 38 | 78 | 144 |  | 57
28 | CC(=O)Nc1ccccc1CCN1CCC2(CC1)CN(c1ccccc1)C(=O)C(C)O2 (stereo unspecified) | 95 | 656 | 68 | 342 |  | 190
29 | C[C@H]1OC2(CCN(CCc3ccccc3F)CC2)CN(c2ncccc2C(F)(F)F)C1=O | 98 | 103 | 50 | 65 | 6600 | 34
30 | CC1OC2(CCN(CCc3ccccn3)CC2)CN(c2cnccc2C(F)(F)F)C1=O (stereo unspecified) | 93 | 622 | 47 | 767 |  | 127
31 | O=C1N(c2ccccc2)CC2(CCN(CCc3ccccc3)CC2)OC12CC2 | 93 | 9 | 87 | 11 | 1200 | 15
32 | CC1OC2(CCN(CCc3ccccc3)CC2)CN(c2ccccn2)C1=O (stereo unspecified) | 50 | 13 | 63 | 1990 |  | 930
33 | COC(=O)CC1OC2(CCN(CCc3ccccc3)CC2)CN(c2ccccc2)C1=O (stereo unspecified) | 85 | 54 | 72 | 181 | 200 | 92
34 | CC1OC2(CCN(CCc3ccccc3)CC2)CN(c2ncccc2C(F)(F)F)C1=O (stereo unspecified) | 100 | 54 | 60 | 343 | 8200 | 262
35 | O=C1COC2(CCN(Cc3ccccc3)CC2)CN1c1ccccc1 | 74 | 26 |  | 3040 |  | 534
36 | CC1OC2(CCN(CCc3cccnc3)CC2)CN(c2ccccc2)C1=O (stereo unspecified) | 85 | 91 | 67 | 853 |  | 117
